# In article PMC6896740, “Safety, tolerability, pharmacokinetics, and pharmacodynamics of PF-06650833, a selective interleukin-1 receptor-associated kinase 4 (IRAK4) inhibitor, in single and multiple ascending dose randomized phase 1 studies in healthy subjects” (Arthritis Research & Therapy, 2019):
# Tested on: healthy adult subjects
# Test: Study 1 (SAD) safety and tolerability: TEAEs
# Format: in vivo
# Text: Study 1 (B7921001; NCT02224651) was a 96-day, phase 1, within-cohort, randomized, double-blind, sponsor-open, placebo-substitution, five-period crossover, SAD study in healthy adult subjects (Fig. 1a). Subjects were sequentially enrolled into four cohorts of ten subjects each. Within each cohort, the subjects were randomized into a maximum of five periods. Within each period, eight subjects and two subjects were randomized to receive PF-06650833 and placebo, respectively. In this placebo-substitution design, all subjects within a cohort received one or more doses of PF-06650833 and/or placebo. Single oral doses of PF-06650833 IR formulations from 1 to 6000 mg, and MR formulations from 30 to 300 mg, were administered in fasted (overnight fast of ≥ 10 h) and/or fed (high-fat breakfast meal) states. Doses were escalated sequentially by period within each cohort (see Fig. 1a for final dosing scheme), based upon the evaluation of ≥ 48 h of safety and tolerability for all subjects and ≥ 8 h of PK data for at least six subjects receiving PF-06650833 and one subject receiving placebo. Dose escalation was to cease when either the limits of safety and/or tolerability were reached, the projected exposure at the subsequent dose exceeded the toxicokinetic limit (TK) established based on the no observable adverse effect level (NOAEL) in relevant animal studies, or a plateau in exposure was reached.
# The effects of food on the plasma PK profile of the IR and MR formulations were explored in cohorts 1 and 3, respectively, by administering 30 mg doses of PF-06650833 in a fasted state and after a high-fat meal. A 1000-mg dose of the IR formulation was also tested in cohort 3 in an attempt to identify a maximum tolerated dose (MTD). Since TK limits were not reached with the IR formulation at doses up to 1000 mg, the IR doses were escalated to 2000 and 6000 mg with a high-fat meal in cohort 4 (Fig. 1a).
# Safety assessments included incidence and severity of treatment-emergent AEs (TEAEs) and discontinuation due to TEAEs, incidence of treatment-emergent clinical laboratory abnormalities, and proportion of subjects meeting with pre-defined criteria for potential clinical concern in vital signs and electrocardiogram (ECG) parameters.
# The safety analysis set was defined as all subjects who received at least one dose of study treatment, and data were summarized descriptively. The PK concentration analysis set was defined as all enrolled, treated subjects who had at least one concentration in at least one treatment period. The PK parameter analysis set was defined as all enrolled, treated subjects who had at least one of the PK parameters of interest in at least one treatment period. The PD analysis set was defined as all enrolled subjects who received at least one dose of PF-06650833 and had at least one PD parameter. PK/PD data were summarized descriptively.
# [1] = IR 2000 mg single dose, fed (high-fat), 8 evaluable
smiles,measurement,setting,value
"CC[C@@H]1[C@H](F)C(=O)N[C@@H]1COc1nccc2cc(C(N)=O)c(OC)cc12 [PF-06650833, 1-{[(2S,3S,4S)-3-Ethyl-4-fluoro-5-oxopyrrolidin-2-yl]methoxy}-7-methoxyisoquinoline-6-carboxamide]","Infections and infestations: subjects with AE, all causalities (treatment-related)","IR 1 mg single dose, fasted, 8 evaluable",1 (0)
same,"Infections and infestations: subjects with AE, all causalities (treatment-related)",[1],1 (0)
same,"Upper respiratory tract infection: subjects with AE, all causalities (treatment-related)",[1],1 (0)
same,Serious AEs or deaths,all dose groups,No serious AEs or deaths
same,Subjects with treatment-related TEAEs,"human, in vivo",4
same,Total treatment-related TEAEs,"human, in vivo",10
same,Severity of TEAEs,in vivo,mild or moderate
same,Treatment-related TEAEs,in vivo,No treatment-related TEAEs
same,Maximum tolerated dose,"single doses IR up to 6000 mg, MR up to 300 mg",not established
